Key:
Experiment in all cases: relative viability (nuclei count vs DMSO), 5 days (fraction); higher = more cells survive
[1] = compound: CCC1=CN=CN=C1N2CCN(CC2)CC3=NC4=C(N3)C=C(C=C4)C(F)(F)F + N=C(N)NC(=N)NCCc1ccccc1 [Phenformin] (partner 250 µM)
How it was run: (§1)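 Dosing by pin tool came one day after lung cancer cell lines were seeded in 1536-well plates, using either one drug or a fixed anchor-drug dose plus five library-drug doses (not always all listed) in √10 steps. After 5 days, nuclei were counted on 4× images. Relative viability is treated-well nuclei count divided by vehicle-well nuclei count, and values are medians of duplicate plates.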

[2] = compound: CCC1=CN=CN=C1N2CCN(CC2)CC3=NC4=C(N3)C=C(C=C4)C(F)(F)F + Nc1ncn([C@H]2C[C@H](O)[C@@H](CO)O2)c(=O)n1 [Decitabine] (partner 2 µM)
How it was run: as §1

[3] = compound: CCn1c(-c2nonc2N)nc2cnc(Oc3cccc(NC(=O)c4ccc(OCCN5CCOCC5)cc4)c3)cc21 + Cc1nc(NC(=O)N2CCC[C@H]2C(N)=O)sc1-c1ccnc(C(C)(C)C(F)(F)F)c1 [Alpelisib] (partner 2 µM)
How it was run: as §1

[4] = compound: N=C1NC(=O)/C(=C/c2ccc(O)cc2)S1 [Mirin] + CS(=O)(=O)CCNCc1ccc(-c2ccc3ncnc(Nc4ccc(OCc5cccc(F)c5)c(Cl)c4)c3c2)o1 [Lapatinib] (partner 2 µM)
How it was run: as §1

Cell Line | relative viability ([1]; first compound 0.04 µM) | relative viability ([1]; first compound 0.1265 µM) | relative viability ([1]; first compound 0.4 µM) | relative viability ([1]; first compound 1.265 µM) | relative viability ([1]; first compound 4 µM) | relative viability ([2]; first compound 0.04 µM) | relative viability ([2]; first compound 0.1265 µM) | relative viability ([2]; first compound 0.4 µM) | relative viability ([2]; first compound 1.265 µM) | relative viability ([2]; first compound 4 µM) | relative viability ([3]; first compound 0.04 µM) | relative viability ([3]; first compound 0.1265 µM) | relative viability ([3]; first compound 0.4 µM) | relative viability ([3]; first compound 1.265 µM) | relative viability ([3]; first compound 4 µM) | relative viability ([4]; first compound 0.25 µM) | relative viability ([4]; first compound 0.7906 µM) | relative viability ([4]; first compound 2.5 µM) | relative viability ([4]; first compound 7.906 µM) | relative viability ([4]; first compound 25 µM)
NCI-H1666 | 0.569 | 0.551 | 0.52 | 0.555 | 0.594 | 0.746 | 0.733 | 0.699 | 0.65 | 0.719 | 1.45 | 1.21 | 1.06 | 0.606 | 0.513 | 0.683 | 0.381 | 0.638 | 0.444 | 0.443
NCI-H1944 | 0.239 | 0.188 | 0.187 | 0.162 | 0.227 | 0.476 | 0.415 | 0.426 | 0.391 | 0.435 | 0.934 | 0.809 |  | 0.781 | 0.789 | 0.904 |  | 0.774 | 0.747 | 0.486
NCI-H2023 | 0.449 | 0.433 | 0.442 | 0.378 | 0.393 | 0.21 | 0.218 | 0.224 | 0.215 | 0.252 | 0.715 | 0.666 | 0.66 | 0.549 | 0.425 | 1.08 | 0.301 | 0.752 | 0.876 | 0.585
NCI-H1755 | 0.632 | 0.583 | 0.597 | 0.484 | 0.634 | 0.759 | 0.693 | 0.729 | 0.72 | 0.759 | 0.975 | 1.01 | 0.923 | 0.872 | 0.882 | 1.03 | 0.951 | 1.05 | 1.11 | 1.18
NCI-H2347 | 0.314 | 0.397 | 0.498 | 0.243 | 0.304 | 0.666 | 0.551 | 0.63 | 0.613 | 0.529 | 1.12 | 1.06 | 0.906 | 0.511 | 0.588 | 0.915 | 0.944 | 0.981 | 0.956 | 0.966
ABC-1 | 0.262 | 0.238 | 0.223 | 0.243 | 0.268 |  |  | 1.04 | 0.84 | 0.887 | 1.35 | 0.691 | 0.877 | 0.877 | 0.487 | 1.04 | 1.33 | 1.17 | 1.16 | 0.95
201T | 0.517 | 0.455 | 0.474 | 0.431 | 0.442 | 0.823 | 0.813 | 0.879 | 0.869 | 0.819 | 1.02 | 1.01 | 0.966 | 1.05 | 0.954 | 0.98 | 0.964 | 1.01 | 1.09 | 1.08
NCI-H1734 | 0.377 | 0.379 | 0.427 | 0.381 | 0.445 | 0.458 | 0.465 | 0.566 | 0.499 | 0.489 | 0.802 | 0.708 | 0.513 | 0.571 | 0.402 | 1.02 | 0.906 | 1.06 | 0.941 | 0.905
NCI-H596 | 0.729 | 0.66 | 0.67 |  | 0.79 | 1 | 1.01 | 0.958 | 0.853 | 1.06 | 0.482 | 0.51 | 0.612 | 0.49 | 0.55 | 1.1 | 1.07 | 1.04 | 1.1 | 0.983
NCI-H1355 | 0.456 | 0.428 | 0.406 | 0.395 | 0.424 | 0.326 | 0.388 | 0.344 | 0.339 | 0.359 | 0.863 | 0.951 | 0.818 | 0.814 | 0.863 | 1.01 | 0.961 | 1.01 | 1.1 | 1.11
NCI-H1915 | 0.361 | 0.362 | 0.376 | 0.344 | 0.358 | 0.24 | 0.262 | 0.261 | 0.272 | 0.263 | 1.03 | 1.09 | 1.03 | 1.08 | 1.04 | 0.95 |  | 0.997 | 0.853 | 0.826
BEN | 0.254 | 0.255 | 0.229 | 0.253 | 0.265 | 0.638 | 0.61 | 0.703 | 0.548 | 0.508 | 1.06 | 1.03 | 0.787 | 0.326 | 0.329 | 0.507 | 0.942 | 0.721 | 0.656 | 0.457
NCI-H322M | 0.874 | 0.761 | 0.772 | 0.632 | 0.799 | 0.687 | 0.658 | 0.632 | 0.654 | 0.699 | 0.895 | 0.816 | 0.759 | 0.939 | 0.909 | 0.569 | 0.831 | 0.929 | 0.683 | 0.705
SK-MES-1 | 0.613 | 0.608 | 0.583 | 0.622 | 0.528 | 0.34 | 0.386 | 0.373 | 0.372 | 0.361 | 0.924 | 0.735 | 0.656 |  | 0.684 | 0.461 | 0.469 | 0.544 | 0.53 | 0.624
HOP-62 | 0.47 | 0.664 | 0.655 | 0.653 | 0.616 | 0.185 | 0.199 | 0.214 | 0.249 | 0.193 | 1.11 | 1.01 | 0.925 | 0.824 | 1.01 | 1.05 | 1.16 | 1.01 |  | 1.23

Reference: the supplement of paper PMC10307832
